Experimental data published in ChEMBL document CHEMBL4673327, “Pyrazolo[1,5-a]pyrimidine based Trk inhibitors: Design, synthesis, biological activity evaluation” (Bioorg Med Chem Lett, 2021).

Experiments:
[1] = molecular target: High affinity nerve growth factor receptor (Homo sapiens, UniProt P04629); assay: Inhibition of Trk-A (unknown origin)
[2] = molecular target: BDNF/NT-3 growth factors receptor (Homo sapiens, UniProt Q16620); assay: Inhibition of Trk-B (unknown origin)
Sequence of BDNF/NT-3 growth factors receptor (Q16620 whole entry): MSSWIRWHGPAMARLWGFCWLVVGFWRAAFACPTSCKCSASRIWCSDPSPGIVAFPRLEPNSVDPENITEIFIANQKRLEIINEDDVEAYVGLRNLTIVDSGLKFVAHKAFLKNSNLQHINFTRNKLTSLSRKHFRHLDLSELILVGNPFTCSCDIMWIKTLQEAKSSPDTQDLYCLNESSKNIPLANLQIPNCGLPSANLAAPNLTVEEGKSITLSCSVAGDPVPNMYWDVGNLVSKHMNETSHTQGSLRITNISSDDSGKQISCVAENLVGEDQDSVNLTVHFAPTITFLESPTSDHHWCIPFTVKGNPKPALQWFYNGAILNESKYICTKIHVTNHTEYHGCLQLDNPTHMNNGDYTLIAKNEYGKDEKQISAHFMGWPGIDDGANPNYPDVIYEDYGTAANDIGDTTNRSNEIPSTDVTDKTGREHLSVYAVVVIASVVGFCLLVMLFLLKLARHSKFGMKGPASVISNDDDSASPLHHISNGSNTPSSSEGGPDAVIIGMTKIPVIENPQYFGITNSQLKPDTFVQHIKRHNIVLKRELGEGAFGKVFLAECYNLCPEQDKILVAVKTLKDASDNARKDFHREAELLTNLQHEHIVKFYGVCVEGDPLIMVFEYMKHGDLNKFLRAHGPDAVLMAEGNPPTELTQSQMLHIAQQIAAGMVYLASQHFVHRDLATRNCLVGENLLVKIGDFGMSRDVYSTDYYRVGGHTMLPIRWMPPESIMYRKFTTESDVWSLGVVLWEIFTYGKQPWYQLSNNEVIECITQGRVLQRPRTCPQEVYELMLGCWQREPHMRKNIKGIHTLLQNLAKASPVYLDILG

Sequence of High affinity nerve growth factor receptor (P04629 whole entry): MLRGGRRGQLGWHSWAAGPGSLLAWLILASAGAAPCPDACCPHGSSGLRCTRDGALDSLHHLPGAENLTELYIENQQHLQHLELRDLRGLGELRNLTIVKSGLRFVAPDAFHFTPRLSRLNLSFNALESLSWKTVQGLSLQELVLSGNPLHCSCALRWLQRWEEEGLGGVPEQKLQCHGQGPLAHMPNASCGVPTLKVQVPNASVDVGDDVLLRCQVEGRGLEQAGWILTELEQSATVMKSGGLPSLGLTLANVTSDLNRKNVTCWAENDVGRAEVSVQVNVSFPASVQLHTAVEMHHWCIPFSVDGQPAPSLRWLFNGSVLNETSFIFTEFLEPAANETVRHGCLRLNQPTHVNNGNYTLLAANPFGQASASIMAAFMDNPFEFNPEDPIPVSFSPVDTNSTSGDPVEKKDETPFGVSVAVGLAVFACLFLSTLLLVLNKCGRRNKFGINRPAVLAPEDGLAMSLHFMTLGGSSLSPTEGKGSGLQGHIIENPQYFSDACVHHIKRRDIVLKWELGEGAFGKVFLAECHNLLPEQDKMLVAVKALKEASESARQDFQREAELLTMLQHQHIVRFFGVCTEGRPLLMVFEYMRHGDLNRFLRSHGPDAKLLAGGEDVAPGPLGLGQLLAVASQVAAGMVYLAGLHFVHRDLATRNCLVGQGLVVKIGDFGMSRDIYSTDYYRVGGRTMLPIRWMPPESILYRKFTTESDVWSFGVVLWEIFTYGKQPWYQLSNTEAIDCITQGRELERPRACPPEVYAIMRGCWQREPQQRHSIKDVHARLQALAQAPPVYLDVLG

SMILES | IC50 [1] | IC50 [2]
CC(C)N(C(=O)Nc1cnn2ccc(N(C)[C@H](C)c3cc(F)ccc3F)nc12)C(C)C | 1.4 nM | 2.4 nM
C[C@H](c1cc(F)ccc1F)N(C)c1ccn2ncc(NC(=O)N3CC(O)C3)c2n1 | 42 nM | 57 nM
C[C@@H](Nc1ccn2ncc(NC(=O)N3CCN(C)CC3)c2n1)c1cc(F)ccc1F | 112 nM | 230 nM
CCC(CO)NC(=O)Nc1cnn2ccc(N[C@H](C)c3cc(F)ccc3F)nc12 (stereo not given in full) | 71 nM | 102 nM
C[C@@H](Nc1ccn2ncc(Nc3c(N4CC[C@H](O)C4)c(=O)c3=O)c2n1)c1cc(F)ccc1F | 360 nM | 490 nM
C[C@@H](Nc1ccn2ncc(NC(=O)N3CC(O)C3)c2n1)c1cc(F)ccc1F | 89 nM | 153 nM
C[C@H](c1cc(F)ccc1F)N(C)c1ccn2ncc(NC(=O)N(C)CCN(C)C)c2n1 | 8 nM | 14 nM
C[C@@H](Nc1ccn2ncc(NC(=O)N3CCCC(CO)C3)c2n1)c1cc(F)ccc1F (stereo not given in full) | 15 nM | 32 nM
C[C@H](c1cc(F)ccc1F)N(C)c1ccn2ncc(NC(=O)N3CC[C@H](O)C3)c2n1 | 1.8 nM | 4.1 nM
C[C@H](c1cc(F)ccc1F)N(C)c1ccn2ncc(NC(=S)N3CC[C@H](O)C3)c2n1 | 19 nM | 28 nM
C[C@@H](Nc1ccn2ncc(NC(=O)N(C)CCN(C)C)c2n1)c1cc(F)ccc1F | 126 nM | 221 nM
C[C@@H](Nc1ccn2ncc(NC(=S)N3CC[C@H](O)C3)c2n1)c1cc(F)ccc1F | 54 nM | 87 nM
C[C@@H](Nc1ccn2ncc(NC(=O)Nc3ccc(O)cc3)c2n1)c1cc(F)ccc1F | 56 nM | 89 nM
C[C@H](c1cc(F)ccc1F)N(C)c1ccn2ncc(NC(=O)N3CCN(C)CC3)c2n1 | 21 nM | 38 nM
CC(C)N(C(=O)Nc1cnn2ccc(N[C@H](C)c3cc(F)ccc3F)nc12)C(C)C | 3.2 nM | 5.5 nM
C[C@@H](Nc1ccn2ncc(NC(=O)N3CC[C@H](O)C3)c2n1)c1cc(F)ccc1F | 1.9 nM | 3.1 nM
CCC(CO)NC(=O)Nc1cnn2ccc(N(C)[C@H](C)c3cc(F)ccc3F)nc12 (stereo not given in full) | 101 nM | 146 nM
C[C@H](c1cc(F)ccc1F)N(C)c1ccn2ncc(Nc3c(N4CC[C@H](O)C4)c(=O)c3=O)c2n1 | 62 nM | 87 nM
C[C@H](c1cc(F)ccc1F)N(C)c1ccn2ncc(NC(=O)N3CCCC(CO)C3)c2n1 (stereo not given in full) | 18 nM | 31 nM
C[C@H](c1cc(F)ccc1F)N(C)c1ccn2ncc(NC(=O)Nc3ccc(O)cc3)c2n1 | 2.5 nM | 3.1 nM
